This is an account of results in article PMC6155752, “Synthesis of 16 New Hybrids from Tetrahydropyrans Derivatives and Morita-Baylis-Hillman Adducts: In Vitro Screening against Leishmania donovani” (Molecules : A Journal of Synthetic Chemistry and Natural …, 2017).

The test system of experiment [1] is promastigotes of Leishmania donovani. Briefly: Effect on promastigotes of Leishmania donovani (MTT viability assay, 72 h). The class given is cell-based. The settings on record: L. donovani promastigotes; for IC50: read-out: IC50 (half maximal inhibitory concentration). As to the method:
Leishmania (Leishmania) donovani (MHOM/ET/1967/HU3) was provided by Oswaldo Cruz Institute Leishmania Collection-Fiocruz-RJ-Brazil. Promastigotes were maintained in vitro at 26 °C in Schneider's medium, pH 7 (20% heat-inactivated fetal bovine serum (FBS), 100 U/mL penicillin, […] streptomycin, and 2% of male urine), as previously described. […] The plates were incubated for 72 h in a biological oxygen demand (B.O.D.) incubator at 26 °C. […] [30].The absorbance was measured using an ELISA plate reader (ELx800, BIOTEK) at 540 nm. Amphotericin® was used as a positive control. The viability of promastigotes incubated in the presence of different concentrations of adducts was determined by comparing to a culture control (L. donovani cultivated in Schneider only). The concentration that caused a 50% reduction in cell viability (IC50) was calculated by Probit analysis (SPSS 13.0 for Windows). Each experiment was performed in duplicate and repeated at least three times.

Experiment [2] concerns acetic acid-induced abdominal writhes. Details: method as in earlier work. The settings on record: mice, ref 16 (Capim et al., Bioorg. Med. Chem. 2013); cited from earlier work.
The test system of another experiment is human red blood cells. Briefly: Haemolytic assay towards human red blood cells. The class given is cell-based. The note with it: HC50 red blood cells / IC50 L. donovani promastigotes. As to the method: Briefly, promastigotes in the logarithmic growth phase were cultured in 96-well cell culture plates at 1 × 10^6 parasites per well in […] of Schneider's medium with increasing concentrations of 3.12, 6.25, 12.5, 25, 50, 100, 200, and 400 µg/mL of Morita-Baylis-Hillman adduct. The plates were incubated for 72 h in a biological oxygen demand (B.O.D.) incubator at 26 °C. Cytotoxicity to promastigotes was evaluated by the 3-(4,5-dimethyl-2-thiazole)-2,5-diphenyltetrazolium bromide (MTT) colorimetric assay as described by Valadares et al..The absorbance was measured using an ELISA plate reader (ELx800, BIOTEK) at 540 nm. Amphotericin® was used as a positive control. The viability of promastigotes incubated in the presence of different concentrations of adducts was determined by comparing to a culture control (L. donovani cultivated in Schneider only). The concentration that caused a 50% reduction in cell viability (IC50) was calculated by Probit analysis (SPSS 13.0 for Windows). Each experiment was performed in duplicate and repeated at least three times. Haemolytic assays (HC50 > […]) towards human red blood cells were performed as described in the literature.

In a further experiment the test system is L. donovani. Details: method as in PMID 27520941. The settings on record: read-out: anti-leishmania activity; cited from earlier work.
In another experiment the test system is Leishmania. The settings on record: read-out: IC50 (leishmanicidal activity), cited from earlier work.
Experiment [3] relates to acetic acid-induced abdominal writhes. Briefly: Acetic acid-induced abdominal writhes in mice. The settings on record: unpublished results. The experiment is classed as in vivo.
Setting [4] is: Figure 1, hybrid 1 and precursors.
Where [5] appears, read: Figure 1, hybrid 5 and precursor eugenol.

Where “and” joins values, the source holds several entries; their conditions need not be identical. Identical values can stand only once. Like-named read-outs stand apart in the source and are kept apart here. Where only a bound is given, the exact number is not on record here.

For “2-(Hydroxy-naphthalen-2-yl-methyl)-acrylic acid 4-chloro-6-naphthalen-1-yl-tetrahydro-pyran -2-ylmethyl ester [8g]”, in experiment [1], the “IC50 (half maximal inhibitory concentration)” value was 24.51 ± 7.5 mg/L and the IC50 is 50.4 ± 15.4 µM.

Consider “2-(Hydroxy-naphthalen-2-yl-methyl)-acrylic acid 6-ethyl-tetrahydro-pyran-2-ylmethyl ester [9g]”, for which, in experiment [1], the “IC50 (half maximal inhibitory concentration)” value was 9.73 ± 4.8 mg/L and the IC50 was 27.5 ± 13.6 µM.

`OC[C@H]1C[C@@H](Cl)C[C@@H](c2cccc3ccccc23)O1` (relative stereo) [compound 6, [(±)-(2,4,6-cis)-4-chloro-6-(naphthalen-1-yl)-tetrahydro-2H-pyran-2-yl]methanol]: in experiment [1] (Leishmania donovani), the IC50 was 47.5 µg/mL and 172 µM. Besides, the “Calculated ED50” value in experiment [2] is given as 27.97 μmol·kg^–1.

Consider `C=C(C(=O)OCC1CC(Cl)CC(c2cccc3ccccc23)O1)C(O)c1ccccc1[N+](=O)[O-]` (stereo not shown) [8a, 2-[Hydroxy-(2-nitro-phenyl)-methyl]-acrylic acid 4-chloro-6-naphthalen-1-yl-tetrahydro-pyran-2-ylmethyl ester], for which the IC50 in experiment [1] (Leishmania donovani) was 7.09 µg/mL and 14.7 µM. Besides, the “SIrb (selectivity index on red blood cell) = HC50/IC50” value in the experiment with human red blood cells is recorded as greater than 56.40.

Take `C=C(C(=O)OCC1CC(Cl)CC(c2cccc3ccccc23)O1)C(O)c1cccc([N+](=O)[O-])c1` (stereo not shown) [8b, 2-[Hydroxy-(3-nitro-phenyl)-methyl]-acrylic acid 4-chloro-6-naphthalen-1-yl-tetrahydro-pyran-2-yl-methyl ester]: in experiment [1] (Leishmania donovani), the IC50 is 8.76 µg/mL and 18.2 µM.

As for `C=C(C(=O)OCC1CC(Cl)CC(c2cccc3ccccc23)O1)C(O)c1ccc([N+](=O)[O-])cc1` (stereo not shown) [8c, 2-[Hydroxy-(4-nitro-phenyl)-methyl]-acrylic acid 4-chloro-6-naphthalen-1-yl-tetrahydro-pyran-2-ylmethyl ester], the IC50 in experiment [1] (Leishmania donovani) is 9.05 µg/mL and 18.8 µM.

For the molecule `C=C(C(=O)OCC1CC(Cl)CC(c2cccc3ccccc23)O1)C(O)c1ccccn1` (stereo not shown) [8d, 2-(Hydroxy-pyridin-2-yl-methyl)-acrylic acid 4-chloro-6-naphthalen-1-yl-tetrahydro-pyran-2-yl methyl ester], the IC50 in experiment [1] (Leishmania donovani) was 61.9 µg/mL and 142 µM.

On to `C=C(C(=O)OCC1CC(Cl)CC(c2cccc3ccccc23)O1)C(O)c1cccnc1` (stereo not shown) [8e, 2-(Hydroxy-pyridin-3-yl-methyl)-acrylic acid 4-chloro-6-naphthalen-1-yl-tetrahydro-pyran-2-yl methyl ester], for which the IC50 in experiment [1] (Leishmania donovani) was 8.76 µg/mL and 20 µM.

As for `C=C(C(=O)OCC1CC(Cl)CC(c2cccc3ccccc23)O1)C(O)c1ccncc1` (stereo not shown) [8f, 2-(Hydroxy-pyridin-4-yl-methyl)-acrylic acid 4-chloro-6-naphthalen-1-yl-tetrahydro-pyran-2-yl methyl ester], in experiment [1] (Leishmania donovani), the IC50 was 8.96 µg/mL and 20.5 µM.

As for `C=C(C(=O)OCC1CC(Cl)CC(c2cccc3ccccc23)O1)C(O)c1ccc(Br)cc1` (stereo not shown) [8h, 2-[(4-Bromo-phenyl)-hydroxy-methyl]-acrylic acid 4-chloro-6-naphthalen-1-yl-tetrahydro-pyran-2-ylmethyl ester], the IC50 in experiment [1] (Leishmania donovani) was 17.2 µg/mL and 33.4 µM.

Take `C=C(C(=O)OCC1CCCC(CC)O1)C(O)c1ccccc1[N+](=O)[O-]` (stereo not shown) [9a, 2-[Hydroxy-(2-nitro-phenyl)-methyl]-acrylic acid 6-ethyl-tetrahydro-pyran-2-ylmethyl ester]: the IC50 in experiment [1] (Leishmania donovani) was 5.64 µg/mL and 16.1 µM. In the experiment with human red blood cells, the “SIrb (selectivity index on red blood cell) = HC50/IC50” value is greater than 70.94.

Consider `C=C(C(=O)OCC1CCCC(CC)O1)C(O)c1cccc([N+](=O)[O-])c1` (stereo not shown) [9b, 2-[Hydroxy-(3-nitro-phenyl)-methyl]-acrylic acid 6-ethyl-tetrahydro-pyran-2-ylmethyl ester], for which the IC50 in experiment [1] (Leishmania donovani) was 13.8 µg/mL and 39.4 µM.

As to `C=C(C(=O)OCC1CCCC(CC)O1)C(O)c1ccc([N+](=O)[O-])cc1` (stereo not shown) [9c, 2-[Hydroxy-(4-nitro-phenyl)-methyl]-acrylic acid 6-ethyl-tetrahydro-pyran-2-ylmethyl ester], the IC50 in experiment [1] (Leishmania donovani) is 7.03 µg/mL and 20.1 µM. In addition, the “SIrb (selectivity index on red blood cell) = HC50/IC50” value with human red blood cells was greater than 56.91.

In the case of `C=C(C(=O)OCC1CCCC(CC)O1)C(O)c1ccccn1` (stereo not shown) [9d, 2-(Hydroxy-pyridin-2-yl-methyl)-acrylic acid 6-ethyl-tetrahydro-pyran-2-ylmethyl ester], in experiment [1] (Leishmania donovani), the IC50 is 72.3 µg/mL and 240 µM.

With `C=C(C(=O)OCC1CCCC(CC)O1)C(O)c1cccnc1` (stereo not shown) [9e, 2-(Hydroxy-pyridin-3-yl-methyl)-acrylic acid 6-ethyl-tetrahydro-pyran-2-ylmethyl ester], the IC50 in experiment [1] (Leishmania donovani) was 17.7 µg/mL and 57.9 µM.

In the case of `C=C(C(=O)OCC1CCCC(CC)O1)C(O)c1ccncc1` (stereo not shown) [9f, 2-(Hydroxy-pyridin-4-yl-methyl)-acrylic acid 6-ethyl-tetrahydro-pyran-2-ylmethyl ester], in experiment [1] (Leishmania donovani), the IC50 is 57.8 µg/mL and 189 µM.

Consider `C=C(C(=O)OCC1CCCC(CC)O1)C(O)c1ccc(Br)cc1` (stereo not shown) [9h, 2-[(4-Bromo-phenyl)-hydroxy-methyl]-acrylic acid 6-ethyl-tetrahydro-pyran-2-ylmethyl ester], for which the IC50 in experiment [1] (Leishmania donovani) was 2.22 µg/mL and 5.81 µM. Also, the “SIrb (selectivity index on red blood cell) = HC50/IC50” value in the experiment on human red blood cells is reported as greater than 180.19.

For the molecule `C[C@@H]1[C@H](O)[C@@H](C)/C=C/C=C/C=C/C=C/C=C/C=C/C=C/[C@H](O[C@@H]2O[C@H](C)[C@@H](O)[C@H](N)[C@@H]2O)C[C@@H]2O[C@](O)(C[C@@H](O)C[C@@H](O)[C@H](O)CC[C@@H](O)C[C@@H](O)CC(=O)O[C@H]1C)C[C@H](O)[C@H]2C(=O)O` [Amphotericin B, reference compound], the IC50 is 0.35 µg/mL and 380 nM in experiment [1] (Leishmania donovani); 0.62 µM in the experiment on L. donovani. Also, the “SIrb (selectivity index on red blood cell) = HC50/IC50” value in the experiment with human red blood cells was 33.05.

`C=C(C(=O)Oc1ccccc1C(=O)OC)C(O)c1ccccc1[N+](=O)[O-]` (stereo not shown) [compound 1]: the IC50 in the experiment on Leishmania (setting [4]) was 28.3 µM.

Consider `COC(=O)c1ccccc1O` [compound 2, methyl salicylate], for which the IC50 with Leishmania (setting [4]) was 1720 µM.

Turning to `C=C(C(=O)OC)C(O)c1ccccc1[N+](=O)[O-]` (stereo not shown) [compound 3], the IC50 with Leishmania (setting [4]) is 347 µM.

Turning to `C=CCc1ccc(O)c(OC)c1` [compound 4, eugenol], in the experiment with Leishmania (setting [5]), the IC50 was 77.5 µM.

Take `CC[C@@H]1CCC[C@H](CO)O1` [compound 5]: in the experiment with Leishmania (setting [5]), the IC50 is 4.7 µM.

As for `CC[C@@H]1CCC[C@H](CO)O1` [compound 7], the IC50 in experiment [1] (Leishmania donovani) is > 400 µg/mL and > 2.78 mM. Besides, the “Calculated ED50” value in experiment [3] is reported as 41.67 μmol·kg^–1.
